According to patent US12226418B2, “Dosing regimen for the treatment of PI3K related disorders” (Incyte Corporation, priority 2018, dated 2025):

Legend:
[1] = Clinical pharmacokinetics and food effect, Compound 1C monotherapy; format: in vivo
Description: Patients were assessed on Days 1, 8, and 15 of Cycle 1 and Day 1 (±3) of each subsequent treatment cycle.

[2] = tested on: phosphorylated AKT (pAKT; Ser473) in SU-DHL cells; assay: Ex vivo phosphorylated AKT (pAKT) pharmacodynamic assay in patient whole blood; format: cell-based, human; details: all Compound 1C doses, up to 6 hours post-dose
Description: Compound 1C was dosed once daily and levels of phosphorylated AKT (pAKT; Ser473) were measured by flow cytometry in SU-DHL cells added to patient whole blood after Compound 1C treatment on day 15 of cycle 1.
(§1) Exploratory endpoints included: duration of response (DOR, duration of time from first response to death or disease progression, whichever occurred first); progression free survival (PFS, duration of time from first study dose to death or disease progression, whichever occurred first); population PK; pharmacodynamic (PD) relationship between PI3Kδ inhibition (as determined by an ex vivo phosphorylated AKT [pAKT] assay).

[3] = tested on: relapsed or refractory B-cell malignancies; assay: Efficacy, Compound 1C monotherapy; format: in vivo, human; details: for durable response: included QW dosing
Description: The secondary endpoints were efficacy and PK. Efficacy was measured by best overall response rate (ORR), defined as the proportion of patients achieving a partial response (PR) or complete response (CR). Response was evaluated (per investigator's assessment) every 9 weeks based on the Lugano classification of lymphoma response criteria for HL and NHL (Cheson B. D. et al, Journal of Clinical Oncology, 2014; 32(27):3059-3067), the International Working Group on Chronic Lymphocytic Leukemia criteria for chronic lymphocytic leukemia (CLL) (Hallek M. et al, Blood, 2008; 111(12):5446-5456; Cheson B. D. et al, J Clin Oncol, 2012; 30(23):2820-2822)), and the VIth International Workshop on Waldenström Macroglobulinemia response assessment for Waldenström Macroglobulinemia (WM) (Owen R. G. et al, Br J Haematol, 2013; 160(2):171-176). If the patient's response to treatment was assessed by PET and CTI/MRI, then the PET result was used for response endpoints; CT/MRI result was used for an assessment if PET result was not available for the assessment; CT/MRI was used for response endpoints if it was the only form of assessment available for the patient.
as §1

CCOc1c([C@H](C)n2nc(C)c3c(N)ncnc32)cc(Cl)c(F)c1[C@@H]1CNC(=O)C1.Cl [Compound 1C, (R)-4-(3-((S)-1-(4-amino-3-methyl-1H-pyrazolo[3,4-d]pyrimidin-1-yl)ethyl)-5-chloro-2-ethoxy-6-fluorophenyl)pyrrolidin-2-one hydrochloric acid salt]
Cmax above the IC90 for pAKT inhibition ([1]; 20 mg QD): 16 fold | Ctrough above the IC90 for pAKT inhibition ([1]; 20 mg QD): 2 fold | decrease in AUC with high fat meal ([1]; food effect, 12 patients): 10% | decrease in Cmax with high fat meal compared with fasted state ([1]; food effect, 12 patients): 42% | fed versus fasted geometric mean ratio for AUC ([1]; food effect, 12 patients): 0.90 | food effect analysis, timing of meals ([1]; human, in vivo): may be dosed without regard to timing of meals | inhibition of pAKT in whole blood [2]: near-maximal inhibition | CR/CMR ([3]; CLL, N 6): 0 (0) n (%) | Not evaluable/ not assessed ([3]; CLL, N 6): 1 (17) n (%) | ORR ([3]; CLL, N 6): 2 (33 [4-78]) n (% [95% CI]) | PD/PMD ([3]; CLL, N 6): 1 (17) n (%) | PR/PMR ([3]; CLL, N 6): 2 (33) n (%) | ORR ([3]; DLBCL): 30% | median duration of response ([3]; DLBCL): 13.5 months | CR/CMR ([3]; DLBCL ABC, N 2): 0 (0) n (%) | Not evaluable/ not assessed ([3]; DLBCL ABC, N 2): 0 n (%) | ORR ([3]; DLBCL ABC, N 2): 1 (50 [1-99]) n (% [95% CI]) | PD/PMD ([3]; DLBCL ABC, N 2): 1 (50) n (%) | PR/PMR ([3]; DLBCL ABC, N 2): 1 (50) n (%) | CR/CMR ([3]; DLBCL GCB, N 19): 4 (21) n (%) | Not evaluable/ not assessed ([3]; DLBCL GCB, N 19): 1 (5) n (%) | ORR ([3]; DLBCL GCB, N 19): 6 (32 [13-57]) n (% [95% CI]) | PD/PMD ([3]; DLBCL GCB, N 19): 9 (47) n (%) | PR/PMR ([3]; DLBCL GCB, N 19): 2 (11) n (%) | deep responses (>75% decrease from baseline in target lesion size), patients ([3]; DLBCL, 20 evaluable): 10% | CR/CMR ([3]; DLBCL, N 23): 4 (17) n (%) | Not evaluable/ not assessed ([3]; DLBCL, N 23): 1 (4) n (%) | ORR ([3]; DLBCL, N 23): 7 (30 [13-53]) n (% [95% CI]) | PD/PMD ([3]; DLBCL, N 23): 11 (48) n (%) | PR/PMR ([3]; DLBCL, N 23): 3 (13) n (%) | durable response ([3]; DLBCL): ~19 months | ORR ([3]; FL): 71% | median duration of response ([3]; FL): not reached | deep responses (>75% decrease from baseline in target lesion size), patients ([3]; FL, 14 evaluable): 50% | CR/CMR ([3]; FL, N 14): 3 (21) n (%) | Not evaluable/ not assessed ([3]; FL, N 14): 1 (7) n (%) | ORR ([3]; FL, N 14): 10 (71 [42-92]) n (% [95% CI]) | PD/PMD ([3]; FL, N 14): 2 (14) n (%) | PR/PMR ([3]; FL, N 14): 7 (50) n (%) | durable response ([3]; FL): ~17 months | CR/CMR ([3]; HL, N 10): 0 (0) n (%) | Not evaluable/ not assessed ([3]; HL, N 10): 1 (10) n (%) | ORR ([3]; HL, N 10): 2 (20 [3-56]) n (% [95% CI]) | PD/PMD ([3]; HL, N 10): 4 (40) n (%) | PR/PMR ([3]; HL, N 10): 2 (20) n (%) | ORR ([3]; MCL): 67% | median duration of response ([3]; MCL): not reached | deep responses (>75% decrease from baseline in target lesion size), patients ([3]; MCL, 8 evaluable): 38% | CR/CMR ([3]; MCL, N 9): 4 (44) n (%) | Not evaluable/ not assessed ([3]; MCL, N 9): 1 (11) n (%) | ORR ([3]; MCL, N 9): 6 (67 [30-93]) n (% [95% CI]) | PD/PMD ([3]; MCL, N 9): 0 (0) n (%) | PR/PMR ([3]; MCL, N 9): 2 (22) n (%) | durable response ([3]; MCL): ≥ 14 months | ORR ([3]; MZL): 78% | median duration of response ([3]; MZL): 4.4 months | deep responses (>75% decrease from baseline in target lesion size), patients ([3]; MZL, 7 evaluable): 57% | responses occurring by the first assessment (~9 weeks) ([3]; MZL, FL, MCL, DLBCL): 93% | CR/CMR ([3]; MZL, N 9): 3 (33) n (%) | Not evaluable/ not assessed ([3]; MZL, N 9): 0 n (%) | ORR ([3]; MZL, N 9): 7 (78 [40-97]) n (% [95% CI]) | PD/PMD ([3]; MZL, N 9): 1 (11) n (%) | PR/PMR ([3]; MZL, N 9): 4 (44) n (%) | durable response ([3]; MZL): ~10 months | durable responses among patients receiving QW dosing ([3]; QW dosing): > 6 months | CR/CMR ([3]; WM, N 1): 0 (0) n (%) | Not evaluable/ not assessed ([3]; WM, N 1): 0 n (%) | ORR ([3]; WM, N 1): 1 (100 [3-100]) n (% [95% CI]) | PD/PMD ([3]; WM, N 1): 0 (0) n (%) | PR/PMR ([3]; WM, N 1): 1 (100) n (%) | patients who achieved an objective response ([3]; all patients with NHL administered 20 mg QD at time of regimen change): 11 patients | objective responses at the first disease assessment ([3]; of 11 patients with NHL administered 20 mg QD): 10 | objective responses in patients previously treated with ibrutinib ([3]; of the 4 patients with MCL): 2 patients | deep responses, patients ([3]; relapsed or refractory B-cell NHL, 10 mg QD to 45 mg QD): > 30%
